Source: US20060093596A1, “Genomic approach to identification of novel broad-spectrum antimicrobial peptides from bony fish” (priority 2002, published 2006)
Where no end group is shown, it is not given here.

What was measured:
[1] = tested on: Aeromonas salmonicida 97-4
Procedure: (§1) Most non-fish bacterial strains as well as Candida albicans were grown at 37° C. in Mueller-Hinton Broth (MHB; Difco Laboratories, Detroit), while the fish bacteria were maintained at 16° C. in Tryptic Soy Broth (TSB; Difco, 5g/l NaCl).
(§2) Two field isolates of the salmonid pathogen Aeromonas salmonicida are from the IMB strain collection.
(§3) The activities of the antimicrobial peptides were determined as minimal inhibitory concentrations (MICs) using the microtitre broth dilution method of Amsterdam (Amsterdam, 1996), as modified by Wu and Hancock (1999). Serial dilutions of the peptide were made in water in 96-well polypropylene (Costar, Coming Incorporated, Coming, New York) microtiter plates. Bacteria or C. albicans were grown overnight to mid-logarithmic phase as described above, and diluted to give a final inoculum size of 10^6 cfu/ml. A suspension of bacteria or yeast was added to each well of a 96 well plate and incubated overnight at the appropriate temperature. […] Three repeats of each MIC determination were performed.

[2] = tested on: Aeromonas salmonicida 99-1, A449
Procedure: as §1, §2, §3

[3] = tested on: bacterial pathogens and C. albicans; assay: Spectrum of antimicrobial activity (MIC panel, overall); type: cell-based; conditions: summary of MIC results against bacteria and C. albicans
Procedure: Three repeats of each MIC determination were performed.
The minimal inhibitory concentrations of the chemically produced peptides against a wide range of baterial pathogens and C. albicans were determined and are shown in Table 9.

[4] = tested on: Staphylococcus epidermidis C621 (clinical isolate)
Procedure: (§4) Most non-fish bacterial strains as well as Candida albicans were grown at 37° C. in Mueller-Hinton Broth (MHB; Difco Laboratories, Detroit), while the fish bacteria were maintained at 16° C. in Tryptic Soy Broth (TSB; Difco, 5g/l NaCl). All strains were stored at −70° C. until they were thawed for use and sub-cultured daily. The following strains, Pseudomonas aeruginosa K799 (parent of Z61), Pseudomonas aeruginosa Z61 (antibiotic supersusceptible), Salmonella typhimurium 14028s (parent of MS7953s), Salmonella typhimurium MS7953s (defensin supersusceptible), as well as Staphylococcus epidermidis (human clinical isolates) and methicillin-resistant Staphylococcus aureus (MRSA; isolated by Dr. A. Chow, University of British Columbia) have been kindly donated by Prof R. E. W. Hancock, University of British Columbia.
as §3

[5] = tested on: methicillin-resistant Staphylococcus aureus (MRSA) C623, SAP017; conditions: methicillin-resistant C623, SAP017
Procedure: as §4, §3

[6] = tested on: Candida albicans C627, CALB105; conditions: C627, CALB105
Procedure: as §4, §3

[7] = tested on: Pseudomonas aeruginosa K799 (H187); type: cell-based; conditions: lowest peptide concentration inhibiting growth by at least 50%; Mueller-Hinton broth
Procedure: as §4, §3

[8] = tested on: Pseudomonas aeruginosa Z61 (H188, supersusceptible strain); type: cell-based; conditions: lowest peptide concentration inhibiting growth by at least 50%; Mueller-Hinton broth
Procedure: as §4, §3

[9] = tested on: Escherichia coli DC2 (C500, outer membrane-permeable mutant); type: cell-based; conditions: lowest peptide concentration inhibiting growth by at least 50%; Mueller-Hinton broth
Procedure: as §4, §3

[10] = tested on: Escherichia coli C786, CGSC4908; type: cell-based; conditions: lowest peptide concentration inhibiting growth by at least 50%; supplemented Mueller-Hinton broth
Procedure: All strains were stored at −70° C. until they were thawed for use and sub-cultured daily.
Escherichia coli strain CGSC 4908 (his-67, thyA43, pyr-37), auxotrophic for thymidine, uridine, and L-histidine (Cohen et al., 1963) was kindly supplied, free of charge, by the E.coli Genetic Stock Centre (Yale University, New Haven, Conn.). MHB supplemented with 5 mg/L thymidine, 10 mg/L uridine and 20 mg/L L-histidine (Sigma Chemical Co., St. Louis, Mo.), was used to grow E.coli CGSC 4908 unless otherwise specified.
The activities of the antimicrobial peptides were determined as minimal inhibitory concentrations (MICs) using the microtitre broth dilution method of Amsterdam (Amsterdam, 1996), as modified by Wu and Hancock (1999). Serial dilutions of the peptide were made in water in 96-well polypropylene (Costar, Coming Incorporated, Coming, New York) microtiter plates. Bacteria or C. albicans were grown overnight to mid-logarithmic phase as described above, and diluted to give a final inoculum size of 10^6 cfu/ml. A suspension of bacteria or yeast was added to each well of a 96 well plate and incubated overnight at the appropriate temperature. In the case of E. coli CGSC 4908, supplemented MHB was used. […] Three repeats of each MIC determination were performed.

[11] = tested on: Escherichia coli UB1005 (C498); type: cell-based; conditions: lowest peptide concentration inhibiting growth by at least 50%; Mueller-Hinton broth
Procedure: as §4, §3

[12] = tested on: Salmonella enterica s. Typhimurium 14028S (C587); type: cell-based; conditions: lowest peptide concentration inhibiting growth by at least 50%; Mueller-Hinton broth
Procedure: as §4, §3

[13] = tested on: Salmonella enterica s. Typhimurium MS4252S (C610, supersusceptible strain); type: cell-based; conditions: lowest peptide concentration inhibiting growth by at least 50%; Mueller-Hinton broth
Procedure: as §4, §3

Row | Substance | Minimal inhibitory concentration, A. sal 97-4 [1] [µg/mL] | Minimal inhibitory concentration, A. sal 99-1 [2] [µg/mL] | antimicrobial activity, overall (in words) [3] | Minimal inhibitory concentration, S. epi C621 [4] [µg/mL] | Minimal inhibitory concentration, MRSA C623 [5] [µg/mL] | Minimal inhibitory concentration, C. alb C627 [6] [µg/mL] | Minimal inhibitory concentration, P. aeru K799 [7] [µg/mL] | Minimal inhibitory concentration, P. aeru Z61 [8] [µg/mL] | Minimal inhibitory concentration, E. coli DC2 [9] [µg/mL] | Minimal inhibitory concentration, E. coli C786 [10] [µg/mL] | Minimal inhibitory concentration, E. coli UB1005 [11] [µg/mL] | Minimal inhibitory concentration, S. typh 14028s [12] [µg/mL] | Minimal inhibitory concentration, S. typh MS4252s [13] [µg/mL]
1 | GWKKWLRKGAKHLGQAAIKGLAS [NRC-17] | 1 | 2 | broad spectrum of antimicrobial activity | 32 | 16 | 8 |  |  |  |  |  |  | 
2 | GWGSIFKHGRHAAKHIGHAAVNHYL-NH2 [NRC-6] | 4 | 4 |  | >64 | 32 | 32 | 16 | 4 | 2 | 4 | 4 | 64 | 4
3 | FLGLLFHGVHHVGKWIHGLIHGHH-NH2 [NRC-19] | >64 | 64 |  | 8 | 8 | 64 | 32 | 8 | 32 | 32 | 16 | 64 | 16
4 | GWKKWLRKGAKHLGQAAIK-NH2 [NRC-16] | 1 | 2 | broad spectrum of antimicrobial activity | 16 | 32 | 8 | 4 | 1 | 0.5 | 1 | 2 | 16 | 0.5
5 | GWKSVFRKAKKVGKTVGGLALDHYL-NH2 [NRC-11] | 8 | 8 | broad spectrum of antimicrobial activity | 64 | >64 | 32 | 32 | 4 | 4 | 4 | 16 | 32 | 4
6 | GRRKRKWLRRIGKGVKIIGGAALDHL-NH2 [NRC-3] | 4 | 2 |  | 8 | 8 | 4 | 2 | 1 | 2 | 2 | 8 | 8 | 2
7 | GFLGILFHGVHHGRKKALHMNSERRS [NRC-20] | >64 | >64 |  | >64 | >64 | >64 |  |  |  |  |  |  | 
8 | GWGSFFKKAAHVGKHVGKAALTHYL-NH2 [NRC-4] | 2 | 2 |  | 8 | 8 | 8 | 8 | 4 | 2 | 2 | 4 | 16 | 2
9 | GWKKWFTKGERLSQRHFA [NRC-18] | 128 | >64 |  | >64 | >64 | >64 |  |  |  |  |  |  | 
10 | WLRRIGKGVKIIGGAALDHL-NH2 [NRC-2] | 128 | >128 | only marginally active | >64 | >64 | >64 | 64 | 32 | 64 | 64 | 64 | >64 | 64
11 | AGWGSIFKHIFKAGKFIHGAIQAHND-NH2 [NRC-14] | 16 | 32 |  | 16 | 16 | >64 | 32 | 8 | 16 | 16 | 16 | >64 | 16
12 | FLGALIKGAIHGGRFIHGMIQNHH-NH2 [NRC-5] | >64 | >64 |  | 32 | 32 | >64 | >64 | 32 | >64 | 64 | 64 | >64 | 64
